Activity calls are given as the source filed them.
How the values were obtained:
[1] = biological target: Aryl hydrocarbon receptor (Homo sapiens, UniProt P35869); assay: Luminescence-based cell-based high throughput dose response assay for activators of the Aryl Hydrocarbon Receptor (AHR). [Related pubchem assays: 2796 (Primary screen (AHR activators in singlicate)), 2845 (Confirmation screen (AHR activators in triplicate)), 434939 (Counterscreen (PXR activators in triplicate)), 2804 (Summary (AHR activators))]; assay type: ADME
[2] = growth suppression of PTEN-null colon cells, dose response, cell-based, HCT116 PTEN knockout (AID 1047); assay type: functional;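 note: HCT116 colon tumor cells with PTEN knocked out; cells exposed to compound for 60 hours before readout; potency for loss of cell viability measured by luminescence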
[3] = growth suppression of beta-catenin-knockout colon cells, dose response, cell-based, HCT116, human colon tumor (AID 1045); assay type: functional;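 note: HCT116 colon tumor cells with beta catenin knocked out; cells exposed to compound for 60 hours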
[4] = biological target: T1, Dual specificity protein phosphatase 6 (Rattus norvegicus, UniProt Q64346); assay: MKP-3 phosphatase inhibitors, primary screen, biochemical, rat enzyme, in vitro (AID 425)
T1 sequence (Q64346 whole entry): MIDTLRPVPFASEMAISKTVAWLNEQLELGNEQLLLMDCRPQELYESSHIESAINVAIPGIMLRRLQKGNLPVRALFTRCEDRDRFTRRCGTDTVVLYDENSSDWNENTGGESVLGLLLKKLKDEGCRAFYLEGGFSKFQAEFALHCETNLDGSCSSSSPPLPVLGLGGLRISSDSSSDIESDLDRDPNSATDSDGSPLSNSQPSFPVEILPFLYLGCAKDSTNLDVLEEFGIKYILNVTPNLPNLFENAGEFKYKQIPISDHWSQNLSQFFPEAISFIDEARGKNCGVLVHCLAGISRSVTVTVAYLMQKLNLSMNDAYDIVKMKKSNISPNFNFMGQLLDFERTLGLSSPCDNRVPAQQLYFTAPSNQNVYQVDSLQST

[5] = biological target: Heat shock protein HSP 90-alpha (Homo sapiens, UniProt P07900); assay: Luminescence-based dose response biochemical high throughput screening assay for inhibitors of the Heat Shock Protein 90 (HSP90). [Related pubchem assays: 1831 (Summary AID.), 1846 (Confirmation screen.), 1789 (Primary screen.)]
[6] = biological target: T2, Rac GTPase-activating protein 1 (Homo sapiens, UniProt Q9H0H5); assay: MgcRacGAP GTPase-activating activity inhibitors, confirmation, biochemical, ADP Hunter fluorescence, primary and confirmatory (AID 624330); assay type: functional
T2 sequence (Q9H0H5 whole entry): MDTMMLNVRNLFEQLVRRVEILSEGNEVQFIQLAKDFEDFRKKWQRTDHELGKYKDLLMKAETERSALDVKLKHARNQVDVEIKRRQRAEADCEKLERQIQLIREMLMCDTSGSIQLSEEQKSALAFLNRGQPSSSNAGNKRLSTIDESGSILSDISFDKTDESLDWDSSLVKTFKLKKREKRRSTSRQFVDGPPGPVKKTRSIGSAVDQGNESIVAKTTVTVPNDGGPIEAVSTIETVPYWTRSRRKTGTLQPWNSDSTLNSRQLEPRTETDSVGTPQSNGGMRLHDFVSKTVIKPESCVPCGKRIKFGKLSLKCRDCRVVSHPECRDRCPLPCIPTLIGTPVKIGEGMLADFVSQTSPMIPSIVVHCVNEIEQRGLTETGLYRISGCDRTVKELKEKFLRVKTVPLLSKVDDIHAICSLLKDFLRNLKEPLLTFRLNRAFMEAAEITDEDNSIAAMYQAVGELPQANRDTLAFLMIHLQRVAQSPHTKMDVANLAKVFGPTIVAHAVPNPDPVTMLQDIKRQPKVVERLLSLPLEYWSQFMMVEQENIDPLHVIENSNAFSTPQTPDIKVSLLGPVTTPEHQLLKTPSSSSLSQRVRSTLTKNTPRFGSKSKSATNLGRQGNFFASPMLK

Protein Tat = biological target: T3, Protein Tat (Human immunodeficiency virus type 1 group M subtype B (isolate HXB2)(HIV-1), UniProt P04608); assay type: functional;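 note: tat binding to TAR RNA read out by fluorescence polarization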
T3 sequence (P04608 whole entry): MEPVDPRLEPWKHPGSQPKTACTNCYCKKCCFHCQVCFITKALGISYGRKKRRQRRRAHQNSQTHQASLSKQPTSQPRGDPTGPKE

[7] = THP-1 cell cytotoxicity, dose response, cytotoxicity control for Vif-APOBEC3G degradation inhibitor project, THP-1 cells (AID 1117359); assay type: functional; details: Human immunodeficiency virus 1, THP-1
[8] = inhibitors of Vif binding to APOBEC3G peptide, primary screen, biochemical, TR-FRET, GST-Vif 1-94, biotin-A3G peptide, dose response retest (AID 1117319); assay type: functional;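 note: TR-FRET signal of purified GST-Vif binding a biotinylated A3G peptide; inhibitors lower the FRET signal by blocking Vif and A3G binding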
[9] = cytotoxicity in HPDE-C7 cells, cell-based, fluorescence, HTS (AID 430); assay type: functional; details: Homo sapiens
[10] = cytotoxicity in KRAS-transformed pancreatic duct cells, primary screen, cell-based, fluorescence, HTS (AID 431); assay type: functional; details: Homo sapiens;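 note: cell line used: HPDE-C7K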
[11] = Luminescence Cell-Based Dose Response to Identify Activators of 5'UTR Stem-Loop Driven Prion Protein mRNA Translation in H4-C Neuroglioblastoma Cells. [Related pubchem assays: 1829 (Project Summary), 1814 (Primary HTS)]; assay type: functional
[12] = Luminescence Cell-Based Dose Response HTS to Identify Activators of Luciferase Translation or Activity in H4 […] Cells. [Related pubchem assays: 1829 (Project Summary), 1814 (Primary HTS)]; assay type: functional
H4 = assay: Luminescence Cell-Based Dose Response HTS to Identify Activators of 5'UTR Stem-Loop Driven Prion Protein mRNA Translation in H4 Neuroglioblastoma Cells. [Related pubchem assays: 1829 (Project Summary), 1814 (Primary HTS)]; assay type: functional; details: Homo sapiens
[13] = Luminescence Cell-Based Dose Response to Identify Activators of Luciferase Translation or Activity in H4-C Neuroglioblastoma Cells. [Related pubchem assays: 1829 (Project Summary), 1814 (Primary HTS)]; assay type: functional
[14] = Luminescence Cell-Based Dose Confirmation to Identify Activators of 5'UTR Stem-Loop Driven Alpha-Synuclein mRNA Translation in H4 Neuroglioblastoma Cells. [Related pubchem assays: 1829 (Project Summary), 1814 (Primary HTS)]; assay type: functional
Vero [15] = assay: host cell cytotoxicity of antiviral hits, dose response, cytotoxicity control for West Nile virus antiviral project, secondary assay (AID 1650); assay type: functional; details: Chlorocebus sabaeus
Vero [16] = assay: cells; assay type: functional; details: Chlorocebus sabaeus

Chain of Aryl hydrocarbon receptor (P35869 whole entry): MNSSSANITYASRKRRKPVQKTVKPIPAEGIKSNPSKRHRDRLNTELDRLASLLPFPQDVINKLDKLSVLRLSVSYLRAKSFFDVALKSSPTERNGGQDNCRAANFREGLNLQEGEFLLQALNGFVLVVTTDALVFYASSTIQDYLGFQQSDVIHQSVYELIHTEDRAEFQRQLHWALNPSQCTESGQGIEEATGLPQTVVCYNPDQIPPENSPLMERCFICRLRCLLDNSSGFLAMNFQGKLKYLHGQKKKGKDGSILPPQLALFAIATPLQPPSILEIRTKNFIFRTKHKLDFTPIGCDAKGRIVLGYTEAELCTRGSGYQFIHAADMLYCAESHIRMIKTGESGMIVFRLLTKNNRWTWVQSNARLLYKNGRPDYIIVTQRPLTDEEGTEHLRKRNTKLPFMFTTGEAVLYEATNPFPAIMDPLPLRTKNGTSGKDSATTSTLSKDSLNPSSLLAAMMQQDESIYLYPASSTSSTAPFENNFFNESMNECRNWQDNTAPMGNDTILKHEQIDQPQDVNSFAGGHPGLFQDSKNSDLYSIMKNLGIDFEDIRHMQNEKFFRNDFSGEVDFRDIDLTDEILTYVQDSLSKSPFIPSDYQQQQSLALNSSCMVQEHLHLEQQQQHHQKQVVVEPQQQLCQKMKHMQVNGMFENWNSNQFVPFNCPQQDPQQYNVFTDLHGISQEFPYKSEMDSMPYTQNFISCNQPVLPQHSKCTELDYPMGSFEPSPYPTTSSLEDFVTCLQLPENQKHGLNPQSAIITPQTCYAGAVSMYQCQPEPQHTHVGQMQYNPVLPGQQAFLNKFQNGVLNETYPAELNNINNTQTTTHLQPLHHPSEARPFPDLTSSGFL

O=C(Nc1ccc2c(c1)OCO2)c1ccncc1
EC50 [1]: 25.3 µM (not active)

O=C1CC(c2ccccc2)c2cc(O)ccc2O1 (stereo unspecified)
EC50 [2]: 32 µM (active) | EC50 [3]: 34.8 µM (active) | IC50 [4]: > 100 µM (not active)

COc1ccccc1Nc1nn2c(=O)c3ccc(C(=O)NCc4cccnc4)cc3nc2s1
IC50 [5]: 4.9 µM (active)

COc1ccc(Br)cc1CNc1ccc(O)cc1
IC50 [6]: 26.8 µM (active) | IC50 (Protein Tat): 46.7 µM (inconclusive) | CC50 [7]: > 40 µM (active)

CCC(Sc1nc(O)cc(-c2ccccc2)n1)C(=O)O (stereo unspecified)
IC50 [8]: > 100 µM (active)

CN1C(=O)C2(OCC(COc3ccc(Cl)cc3)O2)c2ccccc21 (stereo unspecified)
EC50 [9]: > 20 µM (not active) | EC50 [10]: > 20 µM (not active)

CCCCSc1nc2c(cnn2-c2ccccc2)c(=O)n1N
EC50 [11]: 0.348 µM (active) | EC50 [12]: < 0.1 µM (active) | EC50 (H4): > 120 µM (not active) | EC50 [13]: 0.347 µM (active) | EC50 [14]: 0.646 µM (active)

O=C(CSc1nnc(C2CCCCC2)n1Cc1ccccc1)NCc1ccco1
IC50 (Protein Tat): > 100 µM (active) | IC50 [8]: > 100 µM (active)

CC(=O)OC1CC[C@]2(C#N)[C@H]3CC[C@]4(C)[C@H](C5C=CC(=O)O5)CCC4(O)C3CCC2(O)C1 (stereo partly specified)
CC50 (Vero [15]): 13.5 µM (active) | CC50 (Vero [16]): 18.5 µM (active)

O=C(Nc1cccc(Cl)c1)c1ccc(O)nn1
EC50 [1]: 3.4 µM (active)
